Test results from patent US20230117470A1, “SUBSTITUTED PYRAZOLE COMPOUNDS AS TOLL RECEPTOR INHIBITORS” (BRISTOL-MYERS SQUIBB COMPANY, priority 2019, published 2023).

What was measured:
Type in all cases: cell-based
human TLR8 = target: T1, human TLR8 (Homo sapiens, UniProt Q9NR97); experiment: TLR8 inhibition reporter assay (HEK-Blue cells, SEAP reporter, R848 stimulation); details: HEK-Blue cells overexpressing human TLR8, SEAP reporter, R848 15.9 μM
T1 construct: host or cells: HEK-Blue cells
T1 sequence (Q9NR97 27-1041): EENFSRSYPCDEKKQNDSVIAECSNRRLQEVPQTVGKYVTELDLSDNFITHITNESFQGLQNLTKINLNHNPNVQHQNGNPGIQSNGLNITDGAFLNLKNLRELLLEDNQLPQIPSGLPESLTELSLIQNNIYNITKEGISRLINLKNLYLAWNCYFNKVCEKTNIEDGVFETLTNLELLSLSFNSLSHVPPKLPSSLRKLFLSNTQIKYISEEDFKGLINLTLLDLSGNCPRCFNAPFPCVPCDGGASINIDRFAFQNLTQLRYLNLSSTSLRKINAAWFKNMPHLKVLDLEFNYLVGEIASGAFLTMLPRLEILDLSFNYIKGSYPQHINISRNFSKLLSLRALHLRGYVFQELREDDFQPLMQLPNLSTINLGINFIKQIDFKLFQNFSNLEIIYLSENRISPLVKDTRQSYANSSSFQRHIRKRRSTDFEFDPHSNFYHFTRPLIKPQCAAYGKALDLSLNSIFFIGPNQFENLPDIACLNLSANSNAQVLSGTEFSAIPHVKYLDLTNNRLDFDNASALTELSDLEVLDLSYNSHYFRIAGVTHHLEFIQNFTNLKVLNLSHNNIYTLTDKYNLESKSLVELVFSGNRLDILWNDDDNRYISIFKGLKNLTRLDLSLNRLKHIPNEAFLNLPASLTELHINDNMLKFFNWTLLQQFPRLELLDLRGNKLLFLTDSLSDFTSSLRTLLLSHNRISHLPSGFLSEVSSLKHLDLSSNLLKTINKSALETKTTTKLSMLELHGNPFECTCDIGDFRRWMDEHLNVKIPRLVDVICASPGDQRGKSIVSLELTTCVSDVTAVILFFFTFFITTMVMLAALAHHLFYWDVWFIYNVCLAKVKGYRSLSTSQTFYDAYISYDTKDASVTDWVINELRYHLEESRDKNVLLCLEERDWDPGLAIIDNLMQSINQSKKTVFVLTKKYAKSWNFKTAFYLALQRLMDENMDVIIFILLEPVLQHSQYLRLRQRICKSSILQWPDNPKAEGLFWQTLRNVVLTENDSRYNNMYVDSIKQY
How it was run: (§1)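 30 min RT cpd pre-incubation (0.05 nM–50 μM final dose response) → agonist: gardiquimod 7.5 μM / R848 15.9 μM / ODN2006 5 nM for TLR7/8/9 resp. → 22 h, 37° C → SEAP via detection medium. % inhibition vs agonist+DMSO and reference inhibitor controls.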

human TLR9 = target: T2, human TLR9 (Homo sapiens, UniProt Q9NR96); experiment: TLR9 inhibition reporter assay (HEK-Blue cells, SEAP reporter, ODN2006 stimulation); details: HEK-Blue cells overexpressing human TLR9, SEAP reporter, ODN2006 5 nM
T2 construct: host or cells: HEK-Blue cells
T2 sequence (Q9NR96 26-1032): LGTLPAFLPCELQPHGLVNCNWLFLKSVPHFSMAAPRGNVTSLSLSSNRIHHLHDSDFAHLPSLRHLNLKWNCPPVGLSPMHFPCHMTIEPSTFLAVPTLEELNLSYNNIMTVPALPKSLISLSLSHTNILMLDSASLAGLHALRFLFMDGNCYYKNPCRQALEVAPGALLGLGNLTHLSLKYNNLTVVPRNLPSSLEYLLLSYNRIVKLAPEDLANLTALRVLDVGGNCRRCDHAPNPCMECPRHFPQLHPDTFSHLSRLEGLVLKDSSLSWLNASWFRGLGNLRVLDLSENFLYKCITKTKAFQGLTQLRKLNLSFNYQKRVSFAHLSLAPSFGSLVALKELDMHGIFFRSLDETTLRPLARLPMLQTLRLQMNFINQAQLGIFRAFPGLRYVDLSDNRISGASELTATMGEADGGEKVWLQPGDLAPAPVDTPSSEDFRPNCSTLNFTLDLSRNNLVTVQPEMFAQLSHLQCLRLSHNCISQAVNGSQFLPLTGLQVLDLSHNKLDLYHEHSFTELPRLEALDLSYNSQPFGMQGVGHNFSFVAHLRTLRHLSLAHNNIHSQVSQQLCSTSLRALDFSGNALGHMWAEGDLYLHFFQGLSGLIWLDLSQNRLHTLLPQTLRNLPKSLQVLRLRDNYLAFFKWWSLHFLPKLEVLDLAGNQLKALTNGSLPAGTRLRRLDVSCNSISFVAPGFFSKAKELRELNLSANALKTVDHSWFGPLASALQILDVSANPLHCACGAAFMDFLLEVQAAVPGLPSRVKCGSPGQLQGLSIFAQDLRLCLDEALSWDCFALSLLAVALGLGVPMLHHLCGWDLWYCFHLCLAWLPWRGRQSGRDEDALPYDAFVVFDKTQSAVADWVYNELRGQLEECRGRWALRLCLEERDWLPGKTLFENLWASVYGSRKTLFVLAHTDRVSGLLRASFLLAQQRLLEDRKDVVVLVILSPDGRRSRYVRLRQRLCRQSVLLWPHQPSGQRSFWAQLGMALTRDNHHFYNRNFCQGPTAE
How it was run: as §1

human TLR7 = target: T3, human TLR7 (Homo sapiens, UniProt Q9NYK1); experiment: TLR7 inhibition reporter assay (HEK-Blue cells, SEAP reporter, gardiquimod stimulation); details: HEK-Blue cells overexpressing human TLR7, SEAP reporter, gardiquimod 7.5 μM
T3 construct: host or cells: HEK-Blue cells
T3 sequence (Q9NYK1 27-1049): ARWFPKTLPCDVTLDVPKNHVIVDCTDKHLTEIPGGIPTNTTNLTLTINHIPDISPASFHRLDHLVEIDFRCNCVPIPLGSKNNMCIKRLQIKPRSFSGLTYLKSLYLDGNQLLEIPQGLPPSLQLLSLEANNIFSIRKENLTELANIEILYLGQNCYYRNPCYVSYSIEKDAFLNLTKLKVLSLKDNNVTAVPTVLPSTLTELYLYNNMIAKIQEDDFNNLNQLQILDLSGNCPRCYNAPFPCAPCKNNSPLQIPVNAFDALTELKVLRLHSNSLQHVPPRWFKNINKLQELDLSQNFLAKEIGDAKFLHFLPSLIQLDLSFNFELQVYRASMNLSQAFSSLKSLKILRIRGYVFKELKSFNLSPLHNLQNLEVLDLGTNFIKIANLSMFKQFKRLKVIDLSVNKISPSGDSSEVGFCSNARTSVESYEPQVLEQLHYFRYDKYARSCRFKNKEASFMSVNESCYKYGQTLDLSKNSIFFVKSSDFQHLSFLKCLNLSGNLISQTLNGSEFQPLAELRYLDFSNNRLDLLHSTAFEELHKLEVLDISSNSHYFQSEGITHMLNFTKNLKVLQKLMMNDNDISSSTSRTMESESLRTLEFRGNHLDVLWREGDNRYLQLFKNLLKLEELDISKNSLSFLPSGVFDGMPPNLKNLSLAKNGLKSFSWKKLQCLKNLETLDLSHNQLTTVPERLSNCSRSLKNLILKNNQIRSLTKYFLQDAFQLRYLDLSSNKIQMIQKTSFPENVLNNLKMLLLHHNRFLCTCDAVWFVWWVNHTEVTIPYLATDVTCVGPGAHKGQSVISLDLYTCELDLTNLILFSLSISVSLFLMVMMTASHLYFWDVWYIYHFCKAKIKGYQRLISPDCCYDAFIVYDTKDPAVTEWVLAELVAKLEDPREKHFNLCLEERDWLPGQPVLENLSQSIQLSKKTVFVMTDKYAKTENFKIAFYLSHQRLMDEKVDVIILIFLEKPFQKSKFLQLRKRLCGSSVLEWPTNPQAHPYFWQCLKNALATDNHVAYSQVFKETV
How it was run: as §1

## CCN1CC(c2ccc(-c3n[nH]c(-c4cc(OC)c5ncnn5c4)c3C(C)C)cc2)C1 [Example 329]
Human TLR8
  IC50: 60.3 nM
Human TLR9
  IC50: 14700 nM
Human TLR7
  IC50: 414 nM

## COc1cc(-c2[nH]nc(-c3ccc(C4CCN(CC(C)(C)O)CC4)cn3)c2C(C)C)cn2ncnc12 [Example 391]
Human TLR8
  IC50: 118 nM
Human TLR9
  IC50: > 50000 nM
Human TLR7
  IC50: 102 nM

## Cc1cc(-c2[nH]nc(-c3ccc4c(c3)CCN(CC(N)=O)C4)c2C(C)C)cn2ncnc12 [Example 272]
Human TLR8
  IC50: 122 nM
Human TLR9
  IC50: > 50000 nM
Human TLR7
  IC50: 137 nM

## COc1cc(-c2[nH]nc(-c3cnc(C4CCN(C5COC5)CC4)cn3)c2C(C)C)cn2ncnc12 [Example 385]
Human TLR8
  IC50: 31.4 nM
Human TLR9
  IC50: > 50000 nM
Human TLR7
  IC50: 58.8 nM

## Cc1cc(-c2[nH]nc(C(=O)C(=O)NC3CCN(C(C)C)CC3)c2C(C)C)cn2ncnc12 [Example 183, 2-(4-isopropyl-5-(8-methyl-[1,2,4]triazolo[1,5-a]pyridin-6-yl)-1H-pyrazol-3-yl)-N-(1-isopropylpiperidin-4-yl)-2-oxoacetamide]
Human TLR8
  IC50: 9.41 nM
Human TLR9
  IC50: 6790 nM
Human TLR7
  IC50: 8.89 nM

## Cc1cc(-c2cc(C(=O)NC3CCN(C(C)C)CC3)n[nH]2)cn2ncnc12 [Example 178, N-(1-isopropylpiperidin-4-yl)-5-(8-methyl-[1,2,4]triazolo[1,5-a]pyridin-6-yl)-1H-pyrazole-3-carboxamide]
Human TLR8
  IC50: 2.44 nM
Human TLR9
  IC50: 6710 nM
Human TLR7
  IC50: 1.69 nM

## Cc1cc(-c2[nH]nc(C(=O)N[C@H]3CC[C@H](NC(C)CC(C)(C)C)CC3)c2C(C)C)cn2ncnc12 (stereo partly drawn) [Example 120]
Human TLR8
  IC50: 16.7 nM
Human TLR9
  IC50: > 50000 nM
Human TLR7
  IC50: 4.19 nM

## Cc1cc(-c2[nH]nc(C(=O)N[C@H]3CCCN(C)C3)c2C(C)C)cn2ncnc12 [Example 162]
Human TLR8
  IC50: 15.7 nM
Human TLR9
  IC50: 20300 nM
Human TLR7
  IC50: 2.6 nM

## Cc1c(-c2[nH]nc(C(=O)NC3CCN(C(C)C)CC3)c2C(C)C)cn2ncnc2c1C [Example 33]
Human TLR8
  IC50: 1.52 nM
Human TLR9
  IC50: > 50000 nM
Human TLR7
  IC50: 3.86 nM

## COc1ncc(CN[C@H]2CC[C@@H](NC(=O)c3n[nH]c(-c4cc(C)c5ncnn5c4)c3C(C)C)CC2)cn1 [Example 96]
Human TLR8
  IC50: 0.98 nM
Human TLR9
  IC50: 7770 nM
Human TLR7
  IC50: 1.53 nM

## COc1cc(-c2[nH]nc(-c3cnc(C4CCN(CCF)CC4)cn3)c2C(C)C)cn2ncnc12 [Example 398]
Human TLR8
  IC50: 365 nM
Human TLR9
  IC50: > 50000 nM
Human TLR7
  IC50: 137 nM

## Cc1cc(-c2[nH]nc(C(=O)NC3CCN(C4COC4)CC3)c2CC(F)(F)F)cn2ncnc12 [Example 200]
Human TLR8
  IC50: 0.39 nM
Human TLR9
  IC50: 10100 nM
Human TLR7
  IC50: 0.92 nM

## Cc1cc(-c2[nH]nc(-c3ccc(C4CCN(C5COC5)CC4)nc3)c2C(C)C)cn2ncnc12 [Example 362]
Human TLR8
  IC50: > 3130 nM
Human TLR9
  IC50: 25100 nM
Human TLR7
  IC50: > 3130 nM

## Cc1cc(-c2[nH]nc(C(=O)N3CCCN(C)CC3)c2C(C)C)cn2ncnc12 [Example 23]
Human TLR8
  IC50: 1.01 nM
Human TLR9
  IC50: 4770 nM
Human TLR7
  IC50: 1.27 nM

## Cc1cc(-c2[nH]nc(C3CCN(C(=O)CN(C)C)CC3)c2C(C)C)cn2ncnc12 [compound 209]
Human TLR8
  IC50: 0.14 nM
Human TLR9
  IC50: 4170 nM
Human TLR7
  IC50: 0.32 nM

## Cc1cc(-c2[nH]nc(-c3ccc(N4CC(NC(C)C)C4)cc3)c2C(C)C)cn2ncnc12 [Example 409]
Human TLR8
  IC50: 345 nM
Human TLR9
  IC50: 9760 nM
Human TLR7
  IC50: 48.2 nM

## Cc1cc(-c2[nH]nc(C(=O)NCC3CN(C4COC4)CCO3)c2C(C)C)cn2ncnc12 (stereo not drawn) [Example 142]
Human TLR8
  IC50: 2.7 nM
Human TLR9
  IC50: 6970 nM
Human TLR7
  IC50: 2.08 nM

## Cc1cc(-c2[nH]nc(-c3ncc4c(n3)CNC4)c2C(C)C)cn2ncnc12 [Example 216]
Human TLR8
  IC50: 1.02 nM
Human TLR9
  IC50: 6520 nM
Human TLR7
  IC50: 0.72 nM

## Cc1cc(-c2[nH]nc(C(=O)NC[C@@H]3CCCN3)c2C(C)C)cn2ncnc12 [Example 51]
Human TLR8
  IC50: 1.03 nM
Human TLR9
  IC50: 8800 nM
Human TLR7
  IC50: 1.59 nM

## COc1cc(-c2[nH]nc(C(=O)N3CCCN(C)CC3)c2C(C)C)cn2ncnc12 [Example 10]
Human TLR8
  IC50: 1.9 nM
Human TLR9
  IC50: 1330 nM
Human TLR7
  IC50: 1.37 nM

## COc1cc(-c2[nH]nc(-c3cnc(C4CCNCC4)cn3)c2C(C)C)cn2ncnc12 [Example 345]
Human TLR8
  IC50: 3.12 nM
Human TLR9
  IC50: > 50000 nM
Human TLR7
  IC50: 23.4 nM

## COc1cc(-c2[nH]nc(C(=O)N(C)C3CCN(C)CC3)c2C(C)C)cn2ncnc12 [Example 9]
Human TLR8
  IC50: > 3130 nM
Human TLR9
  IC50: 4160 nM
Human TLR7
  IC50: > 3130 nM

## Cc1cc(-c2[nH]nc(-c3ccc(C4CCN(C(C)C)CC4)cc3)c2C(C)C)cn2ncnc12 [Example 307, 6-(4-isopropyl-3-(4-(1-isopropylpiperidin-4-yl)phenyl)-1H-pyrazol-5-yl)-8-methyl-[1,2,4]triazolo[1,5-a]pyridine]
Human TLR8
  IC50: 9.33 nM
Human TLR9
  IC50: > 50000 nM
Human TLR7
  IC50: 118 nM

## Cc1cc(-c2[nH]nc(-c3ncc(C4CCN(CC(C)(C)C)CC4)cn3)c2C(C)C)cn2ncnc12 [Example 371]
Human TLR8
  IC50: 29.4 nM
Human TLR9
  IC50: > 50000 nM
Human TLR7
  IC50: 72.1 nM
